Earlier results on 1 compound are cited in paper PMC7559897, “Designed Antimicrobial Peptides Against Trauma-Related Cutaneous Invasive Fungal Wound Infections” (Journal of Fungi, 2020).

The subject of this data set is P. aeruginosa. Conditions: subinhibitory concentrations, growth at higher concentrations; cited from earlier work. From the text: The rapid destruction of pathogenic cells by dAMPs infers a theoretical reduced likelihood of developing bacterial resistance. However, to confirm this, dAMPs were serially passaged against Candida and against both P. aeruginosa and S. aureus at subinhibitory concentrations to ascertain whether resistance, assessed by growth at higher concentrations, occurs. Resistance was not observed.

On to `CNC(C)C1CCC(N)C(OC2C(N)CC(N)C(OC3OCC(C)(O)C(NC)C3O)C2O)O1` (stereo not shown) [Gentamicin], for which the “resistance during serial passaging against P. aeruginosa” value is given as “strong resistance”.
